Target: neurotensin receptor 1 (NTR1) (Homo sapiens (Human), UniProt P30989)
Assay: NTR1 dose response, high-content imaging beta-arrestin-GFP assay in NTR1-U2OS cells
Type: cell-based
Conditions: read-out: EC50
Text: The cell lines utilized in the high-content imaging assays, which include the NTR1-, NTR2-, and GPR35-U2OS osteosarcomas, were obtained from the laboratory of Dr. Lawrence Barak at the Duke University Medical Center. The media used in the culture of the cell lines, as well as the assays themselves, consisted of Minimum Essential Medium (15-010-CM) and L-glutamine (25-005-CL) from Cellgro/Mediatech (Manassas, Va.), fetal bovine serum (SH30396.03) from Hyclone (Logan, Utah), penicillin-streptomycin solution (PS-20) from Omega Scientific in Tarzana, Calif., G418 (ant-gn-1) from Invivogen (San Diego, Calif.), and zeocin (R250-01) from Invitrogen (Carlsbad, Calif.). Cell lines were cultured in T225 tissue culture flasks (431082) supplied by Corning (Corning, N.Y.). Additional reagents employed include Dulbecco's Phosphate-Buffered Saline (DPBS) (21-031CV) from Cellgro/Mediatech, Trypsin-EDTA 0.05% (25300) from Invitrogen, paraformaldehyde (30528954) from Acros Organics (Geel, Belgium), Hoechst 33342 (H3570) from Invitrogen. The high-content assays were run in 1536-well plates (29326) supplied by Aurora Biotechnology (Poway, Calif.) and utilized aluminum plate seals (T592100) from E&K Scientific (Santa Clara, Calif.). […]
The high-content imaging based NTR1 primary screen in 1536-well format was utilized to assay the MLSMR library of chemical entities in the following manner. On day one, 4 uL of a cell suspension containing 350,000 NTR1-U2OS cells per mL is added to each well of a 1536-well assay plate. Cells are plated in MEM medium containing 2.5% Fetal Bovine Serum, 1% Penicillin/Streptomycin solution, 1% L-Glutamine, 400 ug/mL G418, and 200 ug/mL Zeocin. The assay plates are then incubated overnight at 37° C., under 5% CO2. Following the overnight incubation, a volume of 60 nL of the compounds at 2 mM in DMSO (final 20 μM, 1% DMSO) was transferred to columns 5-48 of the assay plates using a LabCyte Echo Liquid Handler. Next, 60 nL of DMSO were dispensed to columns 1-4, which served as the positive and neutral control wells. […] The assay plates were centrifuged on an Eppendorf 5810 centrifuge at 1000 rpm for 1 min to ensure even liquid levels in the wells of the assay plates. The assay plates were then returned to the incubator for 1 hour. Following the hour-long incubation at 37° C., the cells in each well were fixed with 4 uL of 6% paraformaldehyde added with a Multidrop Combi. The assay plates were centrifuged as before and incubated at room temperature for 1 hour. On the Kalypsys, plates were then aspirated down to 2.5 uL per well and washed twice with 11 uL per well of DPBS, followed by a final aspiration to 2.5 uL per well. On the Combi dispenser, 5 uL of 5 ug/mL Hoechst 33342 diluted in DPBS was added to each well of assay plates. The plates were again centrifuged as previously described, sealed, and incubated for at least 1 hour prior to being loaded on a PerkinElmer Opera QEHS.
Image acquisition was performed with a 45 plate capacity loader/stacker and the following settings: 40×0.6 NA air objective, acquisition camera set to 2-by-2 binning for an image size of 688 by 512 pixels, beta-arrestin-GFP acquired using 488 nm laser excitation and 540/75 nm emission filters, DAPI (nuclei) using 365 nm Xenon lamp excitation and 450/50 nm emission filters, 3 fields per well. Image analysis was performed using the Acapella Spot Detection Algorithm. For analysis settings and the metrics employed in the data analyses, please refer to supplemental information.
Compounds that were successfully confirmed in quadruplicate at 20 uM were then run in dose response in the primary assay. As with the single concentration hit confirmation, the assay was performed in an identical manner as the primary screen with the following modifications. […]

neurotensin receptor 1 (NTR1), sequence (P30989 whole entry, species assumed): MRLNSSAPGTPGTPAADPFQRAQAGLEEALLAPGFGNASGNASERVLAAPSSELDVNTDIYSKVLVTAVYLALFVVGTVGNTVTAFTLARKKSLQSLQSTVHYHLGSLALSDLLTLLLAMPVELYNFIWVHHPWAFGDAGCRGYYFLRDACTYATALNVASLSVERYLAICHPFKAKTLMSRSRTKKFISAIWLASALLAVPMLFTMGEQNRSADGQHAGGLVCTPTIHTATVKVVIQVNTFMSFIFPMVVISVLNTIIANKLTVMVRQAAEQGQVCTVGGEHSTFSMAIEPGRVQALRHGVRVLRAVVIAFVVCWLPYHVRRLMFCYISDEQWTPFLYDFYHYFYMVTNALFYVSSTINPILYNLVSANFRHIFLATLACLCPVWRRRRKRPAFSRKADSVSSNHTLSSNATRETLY

Row | SMILES | EC50 [nM]
1 | COc1ccccc1C1CCN(c2nc(C3(C)CCCC3)nc3ccc(N(C)CCO)cc23)CC1 [Example 51, 2-{[4-[4-(2-methoxy-phenyl)-piperidin-1-yl]-2-(1-methyl-cyclopentyl)-quinazolin-6-yl]-methyl-amino}-ethanol] | 2000 to 10000
2 | CN(C)c1ccccc1C1CCN(c2nc(C3(C)CCCC3)nc3ccc(N(C)CCO)cc23)CC1 [Example 53, {[4-[4-(2-Dimethylamino-phenyl)-piperidin-1-yl]-2-(1-methyl-cyclopentyl)-quinazolin-6-yl]-methyl-amino}-ethanol] | 2000 to 10000
3 | COc1ccccc1C1CCN(c2nc(C3(C(F)(F)F)CCCC3)nc3ccc(N(C)CCO)cc23)CC1 [Example 55, 2-{[4-[4-(2-methoxy-phenyl)-piperidin-1-yl]-2-(1-trifluoromethyl-cyclopentyl)-quinazolin-6-yl]-methyl-amino}-ethanol] | 2000 to 10000
4 | COc1ccccc1C1CCN(c2nc(C3(C(F)(F)F)CCCC3)nc3ccc(N(C)CCN4CCOCC4)cc23)CC1 [Example 56, [4-[4-(2-methoxy-phenyl)-piperidin-1-yl]-2-(1-trifluoromethyl-cyclopentyl)-quinazolin-6-yl]-methyl-(2-morpholin-4-yl-ethyl)-amine] | 2000 to 10000
5 | CN(C)c1ccccc1C1CCN(c2nc(C3(C(F)(F)F)CCCC3)nc3ccc(N(C)CCN4CCOCC4)cc23)CC1 [Example 58, [4-[4-(2-dimethylamino-phenyl)-piperidin-1-yl]-2-(1-trifluoromethyl-cyclopentyl)-quinazolin-6-yl]-methyl-(2-morpholin-4-yl-ethyl)-amine] | 2000 to 10000
6 | COc1ccccc1C1CCN(c2nc(C3(F)CCC3)nc3ccc(N(C)CCO)cc23)CC1 [Example 59, 2-({2-(1-fluoro-cyclobutyl)-4-[4-(2-methoxy-phenyl)-piperidin-1-yl]-quinazolin-6-yl}-methyl-amino)-ethanol] | < 500
7 | CN(C)c1ccccc1C1CCN(c2nc(C3(F)CCC3)nc3ccc(N(C)CCN4CCOCC4)cc23)CC1 [Example 62, [4-[4-(2-dimethylamino-phenyl)-piperidin-1-yl]-2-(1-fluoro-cyclobutyl)-quinazolin-6-yl]-methyl-(2-morpholin-4-yl-ethyl)-amine] | 500 to 2000
8 | CN(C)c1ccccc1C1CCN(c2nc(C3(C(F)(F)F)CCC3)nc3ccc(N(C)CCO)cc23)CC1 [Example 65, 2-{[4-[4-(2-Dimethylamino-phenyl)-piperidin-1-yl]-2-(1-trifluoromethyl-cyclobutyl)-quinazolin-6-yl]-methyl-amino}-ethanol] | 2000 to 10000
9 | CN(C)c1ccccc1C1CCN(c2nc(C3(C(F)(F)F)CCC3)nc3ccc(N(C)CCN4CCOCC4)cc23)CC1 [Example 66, [4-[4-(2-dimethylamino-phenyl)-piperidin-1-yl]-2-(1-trifluoromethyl-cyclobutyl)-quinazolin-6-yl]-methyl-(2-morpholin-4-yl-ethyl)-amine] | > 10000
10 | CN(C)c1ccccc1C1CCN(c2nc(C3(C)CCC3)nc3ccc(N(C)CCN4CCOCC4)cc23)CC1 [Example 67, [4-[4-(2-dimethylamino-phenyl)-piperidin-1-yl]-2-(1-methyl-cyclobutyl)-quinazolin-6-yl]-methyl-(2-morpholin-4-yl-ethyl)-amine] | > 10000
11 | COc1ccccc1C1CCN(c2nc(C3(C)CCC3)nc3ccc(N(C)CCN4CCOCC4)cc23)CC1 [Example 69, [4-[4-(2-methoxy-phenyl)-piperidin-1-yl]-2-(1-methyl-cyclobutyl)-quinazolin-6-yl]-methyl-(2-morpholin-4-yl-ethyl)-amine] | 500 to 2000
12 | COc1ccccc1C1CCN(c2nc(C3(F)CCCC3)nc3ccc(N(C)CCN4CCOCC4)cc23)CC1 [Example 71, {2-(1fluoro-cyclopentyl)-4-[4-(2-methoxy-phenyl)-piperidin-1-yl]-quinazolin-6-yl}-methyl-(2-morpholin-4-yl-ethyl)-amine] | 2000 to 10000
13 | CN(C)c1ccccc1C1CCN(c2nc(C3(F)CCCC3)nc3ccc(N(C)CCN4CCOCC4)cc23)CC1 [Example 73, [4-[4-(2-dimethylamino-phenyl)-piperidin-1-yl]-2-(1-fluoro-cyclopentyl)-quinazolin-6-yl]-methyl-(2-morpholin-4-yl-ethyl)-amine] | 2000 to 10000

The remaining lines, values ahead:

Row | EC50 [nM] | SMILES
14 | > 10000 | CN(C)c1ccccc1C1CCN(c2nc(C3(C(F)(F)F)CC3)nc3ccc(N(C)CCN4CCOCC4)cc23)CC1 [Example 50, [4-[4-(2-dimethylamino-phenyl)-piperidin-1-yl]-2-(1-trifluoromethyl-cyclopropyl)-quinazolin-6-yl]-methyl-(2-morpholin-4-yl-ethyl)-amine]
15 | 2000 to 10000 | COc1ccccc1C1CCN(c2nc(C3(C)CCCC3)nc3ccc(N(C)CCN4CCOCC4)cc23)CC1 [Example 52]
16 | 2000 to 10000 | CN(C)c1ccccc1C1CCN(c2nc(C3(C)CCCC3)nc3ccc(N(C)CCN4CCOCC4)cc23)CC1 [Example 54, [4-[4-(2-dimethylamino-phenyl)-piperidin-1-yl]-2-(1-methyl-cyclopentyl)-quinazolin-6-yl]-methyl-(2-morpholin-4-yl-ethyl)-amine]
17 | 500 to 2000 | CN(C)c1ccccc1C1CCN(c2nc(C3(C(F)(F)F)CCCC3)nc3ccc(N(C)CCO)cc23)CC1 [Example 57, 2-{[4-[4-(2-dimethylamino-phenyl)-piperidin-1-yl]-2-(1-trifluoromethyl-cyclopentyl)-quinazolin-6-yl]-methyl-amino}-ethanol]
18 | < 500 | COc1ccccc1C1CCN(c2nc(C3(F)CCC3)nc3ccc(N(C)CCN4CCOCC4)cc23)CC1 [Example 60, {2-(1-fluoro-cyclobutyl)-4-[4-(2-methoxy-phenyl)-piperidin-1-yl]-quinazolin-6-yl}-methyl-(2-morpholin-4-yl-ethyl)-amine]
19 | < 500 | CN(C)c1ccccc1C1CCN(c2nc(C3(F)CCC3)nc3ccc(N(C)CCO)cc23)CC1 [Example 61, 2-{[4-[4-(2-dimethylamino-phenyl)-piperidin-1-yl]-2-(1-fluoro-cyclobutyl)-quinazolin-6-yl]-methyl-amino}-ethanol]
20 | 500 to 2000 | COc1ccccc1C1CCN(c2nc(C3(C(F)(F)F)CCC3)nc3ccc(N(C)CCO)cc23)CC1 [Example 63, 2-{[4-[4-(2-methoxy-phenyl)-piperidin-1-yl]-2-(1-trifluoromethyl-cyclobutyl)-quinazolin-6-yl]-methyl-amino}-ethanol]
21 | > 10000 | COc1ccccc1C1CCN(c2nc(C3(C(F)(F)F)CCC3)nc3ccc(N(C)CCN4CCOCC4)cc23)CC1 [Example 64, [4-[4-(2-methoxy-phenyl)-piperidin-1-yl]-2-(1-trifluoromethyl-cyclobutyl)-quinazolin-6-yl]-methyl-(2-morpholin-4-yl-ethyl)-amine]
22 | 500 to 2000 | CN(C)c1ccccc1C1CCN(c2nc(C3(C)CCC3)nc3ccc(N(C)CCO)cc23)CC1 [Example 68, 2-{[4-[4-(2-dimethylamino-phenyl)-piperidin-1-yl]-2-(1-methyl-cyclobutyl)-quinazolin-6-yl]-methyl-amino}-ethanol]
23 | 500 to 2000 | COc1ccccc1C1CCN(c2nc(C3(C)CCC3)nc3ccc(N(C)CCO)cc23)CC1 [Example 70, 2-{[4-[4-(2-Methoxy-phenyl)-piperidin-1-yl]-2-(1-methyl-cyclobutyl)-quinazolin-6-yl]-methyl-amino}-ethanol]
24 | 500 to 2000 | COc1ccccc1C1CCN(c2nc(C3(F)CCCC3)nc3ccc(N(C)CCO)cc23)CC1 [Example 72, 2-({2-(1-fluoro-cyclopentyl)-4-[4-(2-methoxy-phenyl)-piperidin-1-yl]-quinazolin-6-yl}-methyl-amino)-ethanol]

From US10118902B2 (Sanford Burnham Prebys Medical Discovery Institute, priority 2014, dated 2018)
